According to US7511041B2, “Fused azole-pyrimidine derivatives” (Bayer Pharmaceuticals Corporation, priority 2002, dated 2009):
Like-named read-outs stand apart in the source and are kept apart here.

How the values were obtained:
[1] = biological target: T1, Recombinant human PI3Kγ (full length human PI3K p110γ) (Homo sapiens, UniProt P48736); test: Kinase assay of PI3Kγ (solid-phase lipid kinase assay); assay type: biochemical
T1 construct: full length human PI3K p110γ fused with a His6-tag at the C-terminus; His6 (C); purchased ALEXIS BIOCHEMICALS #201-055-C010; host or cells: S. frugiperda 9 insect cells
T1 sequence (P48736 whole entry, the tested form may be a part): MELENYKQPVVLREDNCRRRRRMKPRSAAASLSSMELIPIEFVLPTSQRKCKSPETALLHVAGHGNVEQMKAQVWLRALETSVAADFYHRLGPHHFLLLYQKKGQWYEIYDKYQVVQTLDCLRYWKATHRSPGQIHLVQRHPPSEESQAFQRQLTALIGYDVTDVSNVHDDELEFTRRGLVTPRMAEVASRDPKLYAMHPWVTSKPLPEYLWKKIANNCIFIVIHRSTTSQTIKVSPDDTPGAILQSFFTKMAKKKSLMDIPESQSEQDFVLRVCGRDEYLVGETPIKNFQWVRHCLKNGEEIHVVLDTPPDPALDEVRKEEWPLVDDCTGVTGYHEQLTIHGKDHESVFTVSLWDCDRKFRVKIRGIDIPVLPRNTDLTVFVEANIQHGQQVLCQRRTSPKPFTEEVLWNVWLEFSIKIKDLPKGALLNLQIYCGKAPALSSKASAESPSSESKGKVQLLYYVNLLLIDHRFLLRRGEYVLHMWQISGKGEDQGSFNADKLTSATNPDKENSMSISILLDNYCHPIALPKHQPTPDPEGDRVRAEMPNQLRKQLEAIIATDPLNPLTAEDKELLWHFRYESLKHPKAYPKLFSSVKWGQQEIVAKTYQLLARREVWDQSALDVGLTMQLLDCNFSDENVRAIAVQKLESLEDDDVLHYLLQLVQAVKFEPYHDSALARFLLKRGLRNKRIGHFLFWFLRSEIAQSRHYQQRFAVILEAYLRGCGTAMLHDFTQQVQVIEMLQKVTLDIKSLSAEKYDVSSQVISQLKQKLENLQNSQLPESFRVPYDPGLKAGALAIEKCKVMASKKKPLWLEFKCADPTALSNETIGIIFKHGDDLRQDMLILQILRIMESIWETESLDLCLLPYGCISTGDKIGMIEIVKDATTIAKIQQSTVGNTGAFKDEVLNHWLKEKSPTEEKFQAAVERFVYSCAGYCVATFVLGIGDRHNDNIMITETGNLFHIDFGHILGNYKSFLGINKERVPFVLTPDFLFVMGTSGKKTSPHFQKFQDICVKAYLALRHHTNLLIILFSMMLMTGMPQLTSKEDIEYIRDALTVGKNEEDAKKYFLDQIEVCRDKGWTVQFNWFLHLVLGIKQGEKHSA

[2] = in vitro PI3K-γ inhibitory activity, class symbols A-D, read-out: in vitro PI3K-gamma
[3] = Table 1, isozyme not given, read-out: in vitro
[4] = in vitro PI3K-γ inhibitory activity, class symbols, read-out: in vitro PI3K-gamma

Compound | melting point | IC50 [1, 2] [nM] | IC50 [1, 3] [nM] | IC50 [1, 4] [nM]
O=C(NC1=Nc2ccccc2C2=NCCN12)C1CC1 [Example 2-334] | 164 to 165 °C | > 2000 | – | –
O/C(=C\C1=Nc2ccccc2C2=NCCN12)c1cccc(Cl)c1 [Example 1-171] | 224 to 227 °C | – | > 2000 | –
COc1cc2c(cc1OC)C1=NCCN1C(/C=C(\O)c1ccc(NC(C)=O)nc1)=N2.Cl [Example 1-51] | 275 to 280 °C | – | 100 to 500 | –
CN(C)c1cccc(C(=O)NC2=Nc3ccccc3C3=NCCN23)c1 [Example 2-258] | 188 to 190 °C | > 2000 | – | –
O=C(NC1=Nc2cc(Cl)ccc2C2=NCCN12)c1ccc2[nH]cnc2c1 [Example 2-39] | 288 °C | – | – | < 100
CCC/C(O)=C/C1=Nc2ccccc2C2=NCCN12 [Example 1-182] | 113 °C | – | > 2000 | –
CC(C)(C)/C(O)=C/C1=Nc2ccccc2C2=NCCN12 [Example 1-183] | 134 to 138 °C | – | 500 to 2000 | –
O=C(NC1=Nc2cc(OCCCO)ccc2C2=NCCN12)c1cccnc1 [Example 2-199] | 127 °C | – | – | < 100
O/C(=C\C1=Nc2ccccc2C2=NCCN12)c1cc[nH]c1 [Example 1-151] | 247 to 249 °C | – | < 100 | –
CC(=O)Nc1ccc(C(=O)NC2=Nc3c(Cl)cccc3C3=NCCN23)cn1 [Example 2-104] | > 280 °C | – | – | 100 to 500
Cl.O=C(NC1=Nc2ccccc2C2=NCCN12)c1cccnc1O [Example 2-284] | 346 °C (dec.) | > 2000 | – | –
O=C(COc1ccccc1)NC1=Nc2ccccc2C2=NCCN12 [Example 2-325] | 149 to 150 °C | > 2000 | – | –
COc1c(OCC(=O)OC(C)(C)C)ccc2c1N=C(/C=C(\O)c1cccnc1)N1CCN=C21 [Example 1-18] | 184 to 186 °C | – | 100 to 500 | –
OCCCOc1cccc2c1N=C(/C=C(\O)c1cccnc1)N1CCN=C21 [Example 1-92] | 203 to 205 °C | – | < 100 | –
COc1ccc(/C(O)=C/C2=Nc3ccccc3C3=NCCN23)cc1 [Example 1-169] | 212 to 214 °C | – | > 2000 | –
CC(=O)Nc1ccc(/C(O)=C/C2=Nc3c(Br)cc(C)cc3C3=NCCN23)cn1.Cl [Example 1-46] | > 285 °C | – | < 100 | –
O/C(=C\C1=Nc2ccccc2C2=NCCN12)c1nccs1 [Example 1-154] | 208 to 210 °C | – | < 100 | –
CC(C)(C)OC(=O)COc1cccc2c1N=C(/C=C(\O)c1cccnc1)N1CCN=C21.Cl [Example 1-90] | 222 to 223 °C | – | < 100 | –
O=C(NC1=Nc2ccccc2C2=NCCN12)c1ccccc1F [Example 2-224] | 202 to 204 °C | 500 to 2000 | – | –
Cl.O=C(NC1=Nc2ccc(F)cc2C2=NCCN12)c1ccc2[nH]cnc2c1 [Example 2-83] | > 300 °C | – | – | 100 to 500
Cc1noc(C)c1C(=O)NC1=Nc2ccccc2C2=NCCN12.Cl [Example 2-187] | 280 to 281 °C | – | – | 100 to 500
O=C(NC1=Nc2ccccc2C2=NCCN12)C(Cl)(Cl)Cl [Example 2-332] | 194 °C (dec.) | 500 to 2000 | – | –
O=C(NC1=Nc2ccccc2C2=NCCN12)c1sccc1Cl [Example 2-180] | 198 to 199 °C | – | – | 100 to 500
O=C(NC1=Nc2ccccc2C2=NCCN12)c1ccc(-n2cccc2)cc1 [Example 2-266] | 218 to 220 °C | > 2000 | – | –
O=C(NC1=Nc2ccccc2C2=NCCN12)c1ccccc1Cl.O=C(O)C(F)(F)F [Example 2-226] | 221 to 224 °C | > 2000 | – | –
COc1c(OCC(=O)O)ccc2c1N=C(/C=C(\O)c1cccnc1)N1CCN=C21.Cl [Example 1-22] | 240 °C (dec.) | – | < 100 | –
COc1cc2c(c(OC)c1C)N=C(/C=C(\O)c1ccc3[nH]cnc3c1)N1CCN=C21 [Example 1-66] | 280 °C | – | 100 to 500 | –
